Publication doi:10.1101/2020.07.28.224543v1, “Diminazene resistance in Trypanosoma congolense is linked to reduced mitochondrial membrane potential and not to reduced transport capacity” (biorxiv, 2020)

Key:
[1] = molecular target: T1, TbAT1 (Trypanosoma brucei, UniProt Q9Y0I0); assay: inhibition of [3H]-diminazene uptake in transfected bloodstream-form trypanosomes; type: cell-based; details: read-out: % inhibition at 1 mM
T1 construct: gene AT1; full-length transporter expressed in T. b. brucei bloodstream-form clone B48 (lacks native TbAT1/P2 and wild-type TbAQP2)
T1 sequence (Q9Y0I0 entry or part of it): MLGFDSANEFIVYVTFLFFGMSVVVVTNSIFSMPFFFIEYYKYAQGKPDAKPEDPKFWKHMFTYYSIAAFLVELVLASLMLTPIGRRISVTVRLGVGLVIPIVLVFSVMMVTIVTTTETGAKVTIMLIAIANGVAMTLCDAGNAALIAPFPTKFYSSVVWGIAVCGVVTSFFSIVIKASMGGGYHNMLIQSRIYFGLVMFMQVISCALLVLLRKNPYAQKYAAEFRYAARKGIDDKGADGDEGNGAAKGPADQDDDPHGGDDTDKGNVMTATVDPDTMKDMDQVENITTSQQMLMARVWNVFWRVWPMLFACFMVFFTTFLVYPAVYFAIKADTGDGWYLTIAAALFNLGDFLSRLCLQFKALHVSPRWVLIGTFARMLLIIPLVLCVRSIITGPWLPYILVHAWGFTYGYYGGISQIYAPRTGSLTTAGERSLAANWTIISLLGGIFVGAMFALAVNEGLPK

[2] = test system: T2, T. congolense IL3000; assay: microbe, parasite or virus in culture; design: Alamar blue (resazurin) viability assay of in vitro grown trypanosomes, fluorescence read-out; details: Trypanosoma congolense, parental strain IL3000
T2 construct: IL3000
Protocol: At the point of adaptation to 550 nM, the level of DA resistance and the extent of any cross-resistance with the diamidine drugs pentamidine and DB829, and with oxaboroles AN7973 and SCYX7158, was tested using an assay based on the viability dye Alamar blue (resazurin), in which live trypanosomes (but not dead ones) reduce blue and non-fluorescent resazurin to pink, fluorescent resorufin. This assay yields a fluorescent output that is proportional to the number of cells in the well [36]. […] Resistance to DA, as measured in this assay, was ~2.3-3-fold, and highly significant (Fig 1A for fold differences and P values, Table 1 for EC50 values). […] Importantly, there was no cross-resistance with isometamidium, nor with either of the oxaboroles tested, AN7973 and SCYX7158. To further investigate the limits of cross-resistance with other diamidines, a series of bis-benzofuran analogues were tested (Table 1). These analogues were chosen to explore the effect of variable linker length between the benzofuramidine end groups, varying inter-amidine distance as well as the flexibility of the molecule.

| Structure (SMILES) | inhibition at 1000 µM [1] [%] | EC50 ([2]; first series) [nM] | EC50 ([2]; second series) [nM] |
| --- | --- | --- | --- |
| Nc1ncnc2c1ncn2[C@@H]1O[C@H](CO)[C@@H](O)[C@H]1O [Ado, adenosine] | 100 |  |  |
| N=C(N)c1ccc(OCCCCCOc2ccc(C(=N)N)cc2)cc1 [Pentamidine] |  | 1010 |  |
| CC1(C)OB(O)c2cc(NC(=O)c3ccc(F)cc3C(F)(F)F)ccc21 [SCYX-7158] |  | 520 |  |
| CC[n+]1c(-c2ccccc2)c2cc(N/N=N/c3cccc(C(=N)N)c3)ccc2c2ccc(N)cc21 [Isometamidium] |  | 9.8 |  |
| CC1(C)OB(O)c2cc(NC(=O)c3ccc(-n4cccn4)cc3Cl)ccc21 [AN7973] |  | 120 |  |
| N=C(N)c1ccc(N=NNc2ccc(C(=N)N)cc2)cc1 [DA, diminazene aceturate] |  | 270 | 330 |
